What was measured:
Format in all cases: in vivo
Echinochloa crus-galli [1] = assay: Test Example 4: herbicidal effect test by stem and leaf treatment in upland field; conditions: Echinochloa crus-galli; 120 g per 10 ares; sprayed seven days after sowing, upland soil; 14 days after application; read-out: weed inhibition rate
[2] = test system: Echinochloa crus-galli var. formosensis; assay: Test Example 6: herbicidal effect test by application during growth period of paddy rice (low dose); conditions: Echinochloa crus-galli; 7.5 g per 10 ares; applied seven days after sowing, flooded pots; 14 days after application; read-out: weed inhibition rate
Summary of the method: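 Puddled, fertilised paddy soil was sown with 30 seeds per species and flooded to about 3 cm. After 7 days in a glass greenhouse, the diluted emulsifiable concentrate went into the water by dropper at 7.5 g/10 a. Effect scored at 14 days.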

Echinochloa crus-galli [3] = assay: Test Example 7: herbicidal effect test by soil application in upland field (low dose); conditions: Echinochloa crus-galli, 7.5 g per 10 ares, sprayed one day after sowing, 14 days after application, read-out: weed inhibition rate
Summary of the method: (§1)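 Upland alluvial loam pots, seeds mixed into top 1 cm of soil; one day after sowing, diluted emulsifiable concentrate sprayed on soil at 100 L/10 a, giving 7.5 g active ingredient/10 a. Duplicate pots; weed inhibition rate (%) scored 14 days after application.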

Digitaria ciliaris [4] = assay: as above; conditions: Digitaria ciliaris, 7.5 g per 10 ares, sprayed one day after sowing, 14 days after application, read-out: weed inhibition rate
Summary of the method: as §1

Digitaria ciliaris [5] = assay: Test Example 4: herbicidal effect test by stem and leaf treatment in upland field; conditions: Digitaria ciliaris; 120 g per 10 ares; sprayed seven days after sowing, upland soil; 14 days after application; read-out: weed inhibition rate
[6] = test system: Echinochloa crus-galli var. formosensis; assay: Test Example 1: herbicidal effect test by soil application in paddy rice; conditions: Echinochloa crus-galli, soil, 336 h; 120 g active ingredient per 10 ares; applied immediately after sowing, flooded pots; 14 days after application; read-out: weed inhibition rate
Summary of the method: (§2)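 Treatment: 120 g active ingredient per 10 ares as a water-diluted emulsifiable concentrate, dropped onto flooded pots immediately after sowing. Thirty seeds per species went 0–1 cm into puddled paddy soil with 16:16:16 fertilizer, with ~3 cm flooding maintained in a glass greenhouse.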

Scirpus juncoides [7] = assay: as above; conditions: Schoenoplectiella juncoides, soil, 336 h; 120 g active ingredient per 10 ares; applied immediately after sowing, flooded pots; 14 days after application; read-out: weed inhibition rate
Summary of the method: as §2

Echinochloa crus-galli [8] = assay: Test Example 3: herbicidal effect test by soil application in upland field; conditions: Echinochloa crus-galli, 120 g per 10 ares, sprayed one day after sowing, 14 days after application, read-out: weed inhibition rate
Summary of the method: (§3)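 Weed inhibition (%) was assessed 14 days after treatment, in duplicate per concentration group. Seeds had been mixed into the upper 1 cm of upland alluvial loam, and the soil surface was sprayed one day later with the diluted emulsifiable concentrate at 120 g active ingredient per 10 ares.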

Digitaria ciliaris [9] = assay: as above; conditions: Digitaria ciliaris, 120 g per 10 ares, sprayed one day after sowing, 14 days after application, read-out: weed inhibition rate
Summary of the method: as §3

[10] = test system: Echinochloa crus-galli var. formosensis; assay: Test Example 2: herbicidal effect test by application during growth period of paddy rice; conditions: Echinochloa crus-galli; 120 g per 10 ares; applied seven days after sowing, flooded pots; 14 days after application; read-out: weed inhibition rate
Summary of the method: (§4)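 Paddy soil in flooded pots (water depth about 3 cm) was sown with weed seeds and kept in a glass greenhouse. Seven days after sowing, a diluted emulsifiable concentrate was applied by dropper at 120 g active ingredient per 10 ares. Weed inhibition was evaluated 14 days after application, in duplicate.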

Scirpus juncoides [11] = assay: as above; conditions: Schoenoplectiella juncoides; 120 g per 10 ares; applied seven days after sowing, flooded pots; 14 days after application; read-out: weed inhibition rate
Summary of the method: as §4

[12] = test system: Echinochloa crus-galli var. formosensis; assay: Test Example 5: herbicidal effect test by soil application in paddy rice (low dose); conditions: Echinochloa crus-galli, soil, 336 h; 7.5 g per 10 ares; applied immediately after sowing, flooded pots; 14 days after application; read-out: weed inhibition rate
Summary of the method: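 Paddy-soil pots, weeds sown 0–1 cm deep and flooded to about 3 cm in a greenhouse. Emulsifiable concentrate diluted in water and dropped in right after sowing at 7.5 g active ingredient per 10 ares. Duplicates; effect scored 14 days after application.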

Echinochloa crus-galli [13] = assay: Test Example 8: herbicidal effect test by stem and leaf treatment in upland field (low dose); conditions: Echinochloa crus-galli; 7.5 g per 10 ares; sprayed seven days after sowing, upland soil; 14 days after application; read-out: weed inhibition rate
Digitaria ciliaris [14] = assay: as above; conditions: Digitaria ciliaris; 7.5 g per 10 ares; sprayed seven days after sowing, upland soil; 14 days after application; read-out: weed inhibition rate

CC(C)C12CC(OCc3cccs3)C(C)(CC1I)O2 (stereo not shown) [1-1456, 2-iodo-1-isopropyl-4-methyl-5-(2-thienylmethoxy)-7-oxabicyclo[2.2.1]heptane]
≥ 80%: inhibition at 1200 g/ha (Echinochloa crus-galli [1]) | inhibition at 75 g/ha [2] | inhibition at 75 g/ha (Echinochloa crus-galli [3]) | inhibition at 75 g/ha (Digitaria ciliaris [4]) | inhibition at 1200 g/ha (Digitaria ciliaris [5]) | pest or weed control at 1200 g/ha [6] | pest or weed control at 1200 g/ha (Scirpus juncoides [7]) | inhibition at 1200 g/ha (Echinochloa crus-galli [8]) | inhibition at 1200 g/ha (Digitaria ciliaris [9]) | inhibition at 1200 g/ha [10] | inhibition at 1200 g/ha (Scirpus juncoides [11]) | inhibition at 75 g/ha [12] | inhibition at 75 g/ha (Echinochloa crus-galli [13]) | inhibition at 75 g/ha (Digitaria ciliaris [14])

CC(C)C12CC(OCc3ccccc3F)C(C)(CC1I)O2 (stereo not shown) [1-1421, 2-[(2-fluorophenyl)methoxy]-5-iodo-1-methyl-4-isopropyl-7-oxabicyclo[2.2.1]heptane]
≥ 80%: inhibition at 1200 g/ha (Echinochloa crus-galli [1]) | inhibition at 75 g/ha [2] | inhibition at 75 g/ha (Echinochloa crus-galli [3]) | inhibition at 75 g/ha (Digitaria ciliaris [4]) | inhibition at 1200 g/ha (Digitaria ciliaris [5]) | pest or weed control at 1200 g/ha [6] | pest or weed control at 1200 g/ha (Scirpus juncoides [7]) | inhibition at 1200 g/ha (Echinochloa crus-galli [8]) | inhibition at 1200 g/ha (Digitaria ciliaris [9]) | inhibition at 1200 g/ha [10] | inhibition at 1200 g/ha (Scirpus juncoides [11]) | inhibition at 75 g/ha [12] | inhibition at 75 g/ha (Echinochloa crus-galli [13]) | inhibition at 75 g/ha (Digitaria ciliaris [14])

CC(C)C12CC(OCc3ccccn3)C(C)(CC1Br)O2 (stereo not shown) [1-1386, 2-[(5-bromo-1-methyl-4-isopropyl-7-oxabicyclo[2.2.1]heptan-2-yl)oxymethyl]pyridine]
≥ 80%: inhibition at 1200 g/ha (Echinochloa crus-galli [1]) | inhibition at 75 g/ha [2] | inhibition at 75 g/ha (Echinochloa crus-galli [3]) | inhibition at 75 g/ha (Digitaria ciliaris [4]) | inhibition at 1200 g/ha (Digitaria ciliaris [5]) | pest or weed control at 1200 g/ha [6] | pest or weed control at 1200 g/ha (Scirpus juncoides [7]) | inhibition at 1200 g/ha (Echinochloa crus-galli [8]) | inhibition at 1200 g/ha (Digitaria ciliaris [9]) | inhibition at 1200 g/ha [10] | inhibition at 1200 g/ha (Scirpus juncoides [11]) | inhibition at 75 g/ha [12] | inhibition at 75 g/ha (Echinochloa crus-galli [13]) | inhibition at 75 g/ha (Digitaria ciliaris [14])

CO[C@H]1C[C@]2(C)O[C@@]1(C(C)C)CC2OCC=C(C)C (mixture of isomers) [1-799, (1R,2S,4S,SR)-1-isopropyl-2-methoxy-4-methyl-5-(3-methylbut-2-enoxy)-7-oxabicyclo[2.2.1]heptane]
≥ 80%: inhibition at 1200 g/ha (Echinochloa crus-galli [1]) | inhibition at 75 g/ha [2] | inhibition at 75 g/ha (Echinochloa crus-galli [3]) | inhibition at 75 g/ha (Digitaria ciliaris [4]) | inhibition at 1200 g/ha (Digitaria ciliaris [5]) | pest or weed control at 1200 g/ha [6] | pest or weed control at 1200 g/ha (Scirpus juncoides [7]) | inhibition at 1200 g/ha (Echinochloa crus-galli [8]) | inhibition at 1200 g/ha (Digitaria ciliaris [9]) | inhibition at 1200 g/ha [10] | inhibition at 1200 g/ha (Scirpus juncoides [11]) | inhibition at 75 g/ha [12] | inhibition at 75 g/ha (Echinochloa crus-galli [13]) | inhibition at 75 g/ha (Digitaria ciliaris [14])

CC(C)C12C=CC(C)(O1)C(OCc1ccccc1F)C2 (stereo not shown) [3-754, 5-[(2-fluorophenyl)methoxy]-4-methyl-1-isopropyl-7-oxabicyclo[2.2.1]hept-2-ene]
≥ 80%: inhibition at 1200 g/ha (Echinochloa crus-galli [1]) | inhibition at 75 g/ha [2] | inhibition at 75 g/ha (Echinochloa crus-galli [3]) | inhibition at 75 g/ha (Digitaria ciliaris [4]) | inhibition at 1200 g/ha (Digitaria ciliaris [5]) | pest or weed control at 1200 g/ha [6] | pest or weed control at 1200 g/ha (Scirpus juncoides [7]) | inhibition at 1200 g/ha (Echinochloa crus-galli [8]) | inhibition at 1200 g/ha (Digitaria ciliaris [9]) | inhibition at 1200 g/ha [10] | inhibition at 1200 g/ha (Scirpus juncoides [11]) | inhibition at 75 g/ha [12] | inhibition at 75 g/ha (Echinochloa crus-galli [13]) | inhibition at 75 g/ha (Digitaria ciliaris [14])

CC(C)C12CC(OCc3c(F)cccc3F)C(C)(CC1Cl)O2 (stereo not shown) [1-1313, 5-chloro-2-[(2,6-difluorophenyl)methoxy]-1-methyl-4-isopropyl-7-oxabicyclo[2.2.1]heptane]
≥ 80%: inhibition at 1200 g/ha (Echinochloa crus-galli [1]) | inhibition at 75 g/ha [2] | inhibition at 75 g/ha (Echinochloa crus-galli [3]) | inhibition at 75 g/ha (Digitaria ciliaris [4]) | inhibition at 1200 g/ha (Digitaria ciliaris [5]) | pest or weed control at 1200 g/ha [6] | pest or weed control at 1200 g/ha (Scirpus juncoides [7]) | inhibition at 1200 g/ha (Echinochloa crus-galli [8]) | inhibition at 1200 g/ha (Digitaria ciliaris [9]) | inhibition at 1200 g/ha [10] | inhibition at 1200 g/ha (Scirpus juncoides [11]) | inhibition at 75 g/ha [12] | inhibition at 75 g/ha (Echinochloa crus-galli [13]) | inhibition at 75 g/ha (Digitaria ciliaris [14])

CC(C)C12CC(OCc3cccs3)C(C)(CC1Cl)O2 (stereo not shown) [1-1323, 2-chloro-1-isopropyl-4-methyl-5-(2-thienylmethoxy)-7-oxabicyclo[2.2.1]heptane]
≥ 80%: inhibition at 1200 g/ha (Echinochloa crus-galli [1]) | inhibition at 75 g/ha [2] | inhibition at 75 g/ha (Echinochloa crus-galli [3]) | inhibition at 75 g/ha (Digitaria ciliaris [4]) | inhibition at 1200 g/ha (Digitaria ciliaris [5]) | pest or weed control at 1200 g/ha [6] | pest or weed control at 1200 g/ha (Scirpus juncoides [7]) | inhibition at 1200 g/ha (Echinochloa crus-galli [8]) | inhibition at 1200 g/ha (Digitaria ciliaris [9]) | inhibition at 1200 g/ha [10] | inhibition at 1200 g/ha (Scirpus juncoides [11]) | inhibition at 75 g/ha [12] | inhibition at 75 g/ha (Echinochloa crus-galli [13]) | inhibition at 75 g/ha (Digitaria ciliaris [14])

CC(C)C12CC(OCc3ccccn3)C(C)(CC1Cl)O2 (stereo not shown) [1-1320, 2-[(5-chloro-4-isopropyl-1-methyl-7-oxabicyclo[2.2.1]heptan-2-yl)oxymethyl]pyridine]
≥ 80%: inhibition at 1200 g/ha (Echinochloa crus-galli [1]) | inhibition at 75 g/ha [2] | inhibition at 75 g/ha (Echinochloa crus-galli [3]) | inhibition at 75 g/ha (Digitaria ciliaris [4]) | inhibition at 1200 g/ha (Digitaria ciliaris [5]) | pest or weed control at 1200 g/ha [6] | pest or weed control at 1200 g/ha (Scirpus juncoides [7]) | inhibition at 1200 g/ha (Echinochloa crus-galli [8]) | inhibition at 1200 g/ha (Digitaria ciliaris [9]) | inhibition at 1200 g/ha [10] | inhibition at 1200 g/ha (Scirpus juncoides [11]) | inhibition at 75 g/ha [12] | inhibition at 75 g/ha (Echinochloa crus-galli [13]) | inhibition at 75 g/ha (Digitaria ciliaris [14])

Reference: EP4707280A1, “1,4-CINEOLE DERIVATIVE AND INTERMEDIATE THEREOF, HERBICIDE CONTAINING SAID DERIVATIVE AS ACTIVE INGREDIENT, METHOD FOR USING HERBICIDE, AND METHOD FOR PREPARING AGROCHEMICAL COMPOSITION” (HOKKO CHEMICAL INDUSTRY CO., LTD., priority 2023, dated 2024)
